Laboratory results published in paper PMC3217850, “BACE-1 inhibition prevents the γ-secretase inhibitor evoked Aβ rise in human neuroblastoma SH-SY5Y cells” (Journal of Biomedical Science, 2011).
Blank lines part the entries; values can stand above or below the compound they belong to.

Key:
SH-SY5Y APPwt cells [1] = experiment: Aβ40 secretion from SH-SY5Y APPwt cells, ELISA of culture medium; type: cell-based, human; conditions: for IC50: Homo sapiens, 24 h
Procedure: (§1) The human neuroblastoma cell line SH-SY5Y was purchased from European Collection of Cell Cultures (ECACC). Cells were grown in DMEM/Ham's F-12 (PAA), supplemented with 1% non-essential amino acids (PAA) and 10% Fetal Bovine Serum (PAA). Cells were maintained at 37°C in a humidified atmosphere containing 5% CO2.
(§2) SH-SY5Y cells were stably transfected with plasmids carrying human APPwt or APPswe gene. APP gene was purchased from Geneservice Ltd (clone sequence BC065529; clone MGC75167) and the APPswe mutation was generated using a QuikChange® Site-Directed Mutagenesis Kit (Stratagene). APPwt and APPswe genes were cloned into a mammalian expression vector pcDNA3.1 and the expression was under the control of CMV promotor. The cells were plated at the density of 6.25 × 10^4 cells/cm^2 in 6-well culture dishes (Sarstedt) and each well was transfected with 4 μg plasmid DNA. Lipofectamine™2000 (InVitrogen) was used as a transfection reagent according to manufacturer's instructions. The transfected cells were selected with 400 μg/ml G418 (PAA).
(§3) Cells were plated at a density of 6.25 × 10^4 cells/cm^2 in 96-well cell culture plates (TRP) for Aβ measurements with ELISA or in 6-well culture dishes (Sarstedt) for Western blot. The day after the plating of the cells, the cultures were treated with various concentrations of γ-secretase inhibitor LY450139 or the BACE inhibitor for 24 hours. Stock solutions of inhibitors were prepared in dimethyl-sulfoxide (DMSO). All cultures including the control cells received equal amounts of DMSO, the final concentration being 0.1%. All the results were from two to three separate experiments and the data presented as means ± SEM.
(§4) The secreted Aβ40 and Aβ42 peptides in cell culture media were measured using human amyloid β40 or β42 ELISA kits from Millipore. The absorbance was measured at 450 nm by Microplate reader (Molecular Devices). Data from inhibitor-treated cell cultures was expressed as a percent of untreated controls and the inhibition curves were analysed by non-linear regression using Graph Pad Prism.

SH-SY5Y APPswe cells [2] = experiment: Aβ40 secretion from SH-SY5Y APPswe cells, ELISA of culture medium; type: cell-based, human; conditions: for IC50: Homo sapiens, 24 h
Procedure: as §1, §2, §3, §4

Aβ [3] = system: Aβ; parameters: method as in PMID 20363853; conditions: preclinically ref 13; cited from earlier work
SH-SY5Y APPwt cells [4] = experiment: Aβ42 secretion from SH-SY5Y APPwt cells, ELISA of culture medium; type: cell-based, human
Procedure: as §1
as §2, with “The transfected cells were selected with 400 μg/ml G418 (PAA).” left out
as §4

SH-SY5Y APPswe cells [5] = experiment: Aβ42 secretion from SH-SY5Y APPswe cells, ELISA of culture medium; type: cell-based, human; conditions: 3 nM LY450139, SH-SY5Y APPswe
Procedure: as §1
as §2, with “The transfected cells were selected with 400 μg/ml G418 (PAA).” left out
as §4

SH-SY5Y APPwt cells [6] = experiment: Western blot (6E10 antibody) of APP substrate in cell lysates; type: cell-based, human; conditions: 3, 30 or 300 nM LY450139, 24 h
Procedure: as §3
SH-SY5Y cells were lysed in buffer containing 50 mM Tris-HCl pH 8.0, 150 mM NaCl, 1% Triton X-100, 1 mM EDTA, 1 mM Na3VO4 and 1 complete protease inhibitor cocktail tablet (Roche Diagnostics)/10 ml buffer. The cells were incubated with lysis buffer for 10 minutes on ice before scraping the cells from the dishes. Cell lysates were centrifuged at 14 000 rpm for 15 minutes. The protein content in the supernatants was measured using Pierce® 660 nm Protein Assay kit. Samples, containing 20 μg protein, were resolved in 7% NuPAGE®Tris-Acetate gels (InVitrogen) using Tris-Acetate SDS running buffer (InVitrogen). […] Average density of the bands was measured in ChemiDoc™XRS (Bio-Rad) by using Quantity One software.

Aβ [7] = system: Aβ; parameters: method as in PMID 19360898; conditions: healthy volunteers ref 3; cited from earlier work
AD patients = system: AD patients; parameters: method as in earlier work; conditions: phase III, AD patients ref 14; cited from earlier work

IC50 (SH-SY5Y APPwt cells [1]; BACE inhibitor alone, SH-SY5Y APPwt): 7 nM
IC50 (SH-SY5Y APPswe cells [2]; BACE inhibitor alone, SH-SY5Y APPswe): 18 nM
Structure (SMILES): CCc1cn2c3c(cc(C(=O)N[C@@H](Cc4ccccc4)[C@H](O)CNC4CC4)cc13)N(C)S(=O)(=O)CC2 [BACE inhibitor, N-[(1S,2R)-1-Benzyl-3-(cyclopropylamino)-2-hydroxypropyl]-7-ethyl-1-methyl-3,4-dihydro-1H-[1,2, 5]thiadiazepino[3,4,5-hi-]indole-9-carboxamide 2,2-Dioxide]
concentration required to abolish the LY450139-evoked Aβ40 rise completely (SH-SY5Y APPwt cells [1]; SH-SY5Y APPwt): 30 nM

Structure (SMILES): CCC[C@H](N[C@H]1CCc2cc(F)cc(F)c2C1)C(=O)Nc1cn(C(C)(C)CNCC(C)(C)C)cn1 [PF-3084014]
Aβ rebound/rise attribute (Aβ [3]): lack this attribute

IC50 (SH-SY5Y APPwt cells [1]; SH-SY5Y APPwt, inhibitory phase at > 30 nM, approximate): ~90 nM
IC50 (SH-SY5Y APPswe cells [2]; SH-SY5Y APPswe, monophasic): 18 nM
Structure (SMILES): CC(C)[C@H](O)C(=O)N[C@@H](C)C(=O)N[C@@H]1C(=O)N(C)CCc2ccccc21 [LY450139, (N)-((S)-2-hydroxy-3-methyl-butyryl)-1-(L-alaninyl)-(S)-amino-3-methyl-2,3,4,5-tetrahydro-1H-3-benzazepin-2-one dihydrate]
Aβ40 levels increase above baseline (SH-SY5Y APPwt cells [1]; 3 nM LY450139, 24 h, SH-SY5Y APPwt): 60%
effect on basal Aβ40 levels (SH-SY5Y APPwt cells [1]; 30 nM LY450139 per se, SH-SY5Y APPwt): does not affect basal Aβ40 levels
reduction of Aβ40 secretion compared to control (SH-SY5Y APPwt cells [1]; 300 nM LY450139, 24 h, SH-SY5Y APPwt): 80%
fold less potent at inhibiting Aβ40 secretion from APPwt cells compared to APPswe cells (SH-SY5Y APPwt cells [1]; APPwt vs APPswe IC50): ~ 5 fold
Aβ40 production 2 - 6 hours after washout (SH-SY5Y APPwt cells [1]; LY450139 pre-treated vs control cells, data not shown): did not differ
Aβ40 levels increase with 3 nM LY450139 in second 24 h (SH-SY5Y APPwt cells [1]; after 300 nM LY450139 for first 24 h, compared to cells given fresh medium in second 24 h, SH-SY5Y APPwt): 60%
Aβ40 secretion during 24 h after washout (SH-SY5Y APPwt cells [1]; pre-treated 300 nM LY450139 24 h, then fresh medium 24 h, SH-SY5Y APPwt): did not differ from control cells
effect on Aβ40 secretion per se (SH-SY5Y APPswe cells [2]; 3 nM LY450139, SH-SY5Y APPswe): does not affect Aβ40-secretion per se
remaining Aβ40 secretion (SH-SY5Y APPswe cells [2]; 30 nM LY450139, SH-SY5Y APPswe): 20-30%
Aβ40 levels with 3 nM LY450139 in second 24 h (SH-SY5Y APPswe cells [2]; after 300 nM LY450139 for first 24 h, SH-SY5Y APPswe): did not lead to increased Aβ40 levels
secreted Aβ42 levels increase compared to controls (SH-SY5Y APPwt cells [4]; 3 nM LY450139, SH-SY5Y APPwt): 70%
Aβ42 secretion after washout (SH-SY5Y APPwt cells [4]; 300 nM LY450139 24 h, then fresh medium 24 h, SH-SY5Y APPwt): returned to control levels
effect on secreted Aβ42 levels (SH-SY5Y APPswe cells [5]): not affected
substrate (APP bands, 6E10) level (SH-SY5Y APPwt cells [6]): accumulation of substrate
effect on Aβ levels in the cerebrospinal fluid (Aβ [7]): lower Aβ levels
cognitive symptoms versus placebo (AD patients): fared worse than placebo-treated controls
